Patent US11098077B2, “Locked nucleic acid cyclic dinucleotide compounds and uses thereof” (CHINOOK THERAPEUTICS, INC., priority 2016, dated 2021)

What was measured:
hSTING REF allele = target: T1, hSTING REF allele (Homo sapiens, UniProt Q86WV6); assay: Differential scanning fluorometry (DSF) binding to purified STING AA140-379, REF allele; settings: for hSTING Tm Shift REF: DSF, ligand 1 mM, 1 mg/ml STING AA140-379; for Tm shift compared with 2′3′-RR-(A)(A) and 2′3′-(G)(A): for the REF allele
T1 construct: DNA encoding amino acids 140-379 (amino acid numbering corresponding to Swiss Prot Q86WV6); 6xHIS (N, cleaved yes); SUMO (N, cleaved yes); made in house; host or cells: Rosetta2 (DE3) E. coli
T1 sequence (Q86WV6 140-379): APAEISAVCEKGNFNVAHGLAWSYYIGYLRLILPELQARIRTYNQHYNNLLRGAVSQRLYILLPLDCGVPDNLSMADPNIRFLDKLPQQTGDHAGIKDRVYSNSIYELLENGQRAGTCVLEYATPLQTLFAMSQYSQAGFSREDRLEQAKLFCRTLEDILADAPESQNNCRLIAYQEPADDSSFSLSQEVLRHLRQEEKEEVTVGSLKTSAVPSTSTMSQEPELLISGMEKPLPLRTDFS
Procedure: (§1) Cells were grown in lysogeny broth at 37° C. until a […] absorbance of 0.6 was reached. […] Cell pellets were re-suspended on ice in a buffer containing 50 mM Tris hydrochloride (Tris-HCl) pH 7.5, 500 mM sodium chloride (NaCl), 20 mM imidazole, 10% glycerol, 1 mM tris(2-carboxyethyl)phosphine hydrochloride (TCEP) and protease inhibitor tablet (Pierce) (Buffer A). Cells were lysed using an S-450D sonifier (Emmerson industrial) on ice. […] Protein was aliquoted, flash frozen in liquid nitrogen and stored at −80° C. until use.
(§2) The protein is heated in the presence of a dye that binds to and fluoresces in hydrophobic environments. The protein is thermally denatured by heating resulting in increased dye binding to the unfolded protein and fluorescence. The temperature midpoint (Tm) of a proteins denaturation is established by calculating the half maximal value of the denaturation curve. The temperature midpoint of the protein in the presence of a ligand is directly related to the affinity of the ligand for the protein and therefore its ability to stabilize the protein at higher temperatures.
(§3) Each of wild type hSTING, HAQ allele hSTING and REF allele hSTING were used with each of the reference compounds and compounds of the invention as listed in Table 4. Samples were placed in hard shell PCR plate (Bio-Rad). The fluorescence as a function of temperature was recorded in a CFX 96 real time PCR machine (Bio-Rad) reading on the HEX channel, excitation 450-490, emission 560-580 nm. The temperature gradient was from 15-80° C. ramping 0.5° C. per 15 seconds and recording every 0.5° C. After subtraction of the background signal from a sample lacking protein and ligand. The midpoint temperature (Tm) was calculated by fitting the curves of the fluorescence as a function of temperature to a Boltzmann sigmoidal function (Graph Pad Prism).

[1] = target: T2, hSTING HAQ allele in THP1-Dual cells (Homo sapiens, UniProt Q86WV6, G230A/H232R/R293Q/R71H); assay: THP1-Dual IRF-3 inducible secreted luciferase reporter assay (type I interferon activation), without digitonin; assay type: cell-based
T2 construct: a human monocyte cell line containing the hSTING HAQ allele; host or cells: THP1-Dual cells
T2 sequence (Q86WV6 whole entry R71H/G230A/H232R/R293Q): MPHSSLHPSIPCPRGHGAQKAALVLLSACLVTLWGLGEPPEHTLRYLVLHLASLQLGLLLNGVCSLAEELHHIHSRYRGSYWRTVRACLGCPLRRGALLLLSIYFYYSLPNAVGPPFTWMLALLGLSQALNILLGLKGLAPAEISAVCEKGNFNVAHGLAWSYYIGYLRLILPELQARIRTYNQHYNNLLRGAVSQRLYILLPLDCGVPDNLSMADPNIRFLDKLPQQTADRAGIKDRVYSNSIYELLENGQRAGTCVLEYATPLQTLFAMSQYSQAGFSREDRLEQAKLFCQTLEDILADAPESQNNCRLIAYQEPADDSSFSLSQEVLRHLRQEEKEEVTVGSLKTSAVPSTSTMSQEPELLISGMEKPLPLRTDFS
Procedure: After 30 minutes, cells were washed and fresh RPMI media containing 10% FBS was added, and cells were incubated at 37° C. with 5% CO2 Cell culture supernatants from each sample were collected after overnight incubation, and 10 μL of the cell culture supernatants was added to 50 μL QUANTI-Luc reagent (Invivogen). Type I interferon activation was determined by measuring secreted luciferase levels on a SpectraMax M3 spectrophotometer (Molecular Devices).

hSTING WT = target: T3, hSTING WT (Homo sapiens, UniProt Q86WV6, H232R); assay: Differential scanning fluorometry (DSF) binding to purified STING AA140-379, wild type; settings: for hSTING Tm Shift WT: DSF, ligand 1 mM, 1 mg/ml STING AA140-379; for Tm shift compared with reference compound 2′3′-RR-(A)(A): for all three alleles (WT, HAQ, REF)
T3 construct: DNA encoding amino acids 140-379 (amino acid numbering corresponding to Swiss Prot Q86WV6); 6xHIS (N, cleaved yes); SUMO (N, cleaved yes); made in house; host or cells: Rosetta2 (DE3) E. coli
T3 sequence (Q86WV6 140-379 H232R limits assumed): as the sequence (Q86WV6 140-379) above, with H93R counted along it
Procedure: as §1, §2, §3

hSTING HAQ allele = target: T4, hSTING HAQ allele (Homo sapiens, UniProt Q86WV6, G230A/H232R/R293Q); assay: Differential scanning fluorometry (DSF) binding to purified STING AA140-379, HAQ allele; settings: ligand 1 mM, 1 mg/ml STING AA140-379
T4 construct: DNA encoding amino acids 140-379 (amino acid numbering corresponding to Swiss Prot Q86WV6); 6xHIS (N, cleaved yes); SUMO (N, cleaved yes); made in house; host or cells: Rosetta2 (DE3) E. coli
T4 sequence (Q86WV6 140-379 G230A/H232R/R293Q limits assumed): as the sequence (Q86WV6 140-379) above, with G91A, H93R, R154Q counted along it
Procedure: as §1, §2, §3

Structure (SMILES) | hSTING Tm Shift REF (hSTING REF allele) [°C] | Tm shift compared with 2′3′-RR-(A)(A) and 2′3′-(G)(A) (hSTING REF allele) | EC50 [1] [µM] | hSTING Tm Shift WT (hSTING WT) [°C] | Tm shift compared with reference compound 2′3′-RR-(A)(A) (hSTING WT) | hSTING Tm Shift HAQ (hSTING HAQ allele) [°C]
Nc1ncnc2c1ncn2[C@@H]1O[C@@]23CO[C@@H]1[C@@H]2O[P@@](=O)(S)OC[C@@]12CO[C@@H]([C@H](n4cnc5c(N)ncnc54)O1)[C@@H]2O[P@](=O)(S)OC3 [Compound 5b] | 8.7 | greater Tm shift than both 2′3′-RR-(A)(A) and 2′3′-(G)(A) | 19.3 | 11.3 | comparable to or greater than that of the reference compound 2′3′-RR-(A)(A) | 18.3
O=C(Nc1ncnc2c1ncn2[C@@H]1O[C@@H]2CO[P@](=O)(S)O[C@H]3[C@H]4OC[C@]3(CO[P@@](=O)(S)O[C@@H]1[C@@H]2O)O[C@H]4n1cnc2c(NC(=O)c3ccccc3)ncnc21)c1ccccc1 [Compound 11e, dithio-(Rp,Sp)-cyclic-[3′-BzA(2′,5′)p-2′O,4′C-LNA-BzA(3′,5′)p]] | 1.2 |  |  | 1.1 |  | 1.5
Nc1ncnc2c1ncn2[C@@H]1O[C@@H]2CO[P@@](=O)(S)O[C@H]3[C@H]4OC[C@]3(CO[P@](=O)(S)O[C@@H]1[C@H]2F)O[C@H]4n1cnc2c(N)ncnc21 [Compound 37c, dithio-(Sp,Rp)-cyclic-[3′βF-A(2′,5′)p-2′O,4′C-LNA-A(3′,5′)p]] | 0.8 |  | > 150 | 1.2 |  | 5.7
Nc1ncnc2c1ncn2[C@@H]1O[C@@H]2CO[P@](=O)(S)O[C@H]3[C@H]4OC[C@]3(CO[P@@](=O)(S)O[C@@H]1[C@@H]2O)O[C@H]4n1cnc2c(N)ncnc21 [Compound 10b, dithio-(Rp,Sp)-cyclic-[A(2′,5′)p-2′O,4′C-LNA-A(3′,5′)p]] | 7.4 |  | 110 | 8.7 |  | 13.9
CC(C)(C)[Si](C)(C)O[C@H]1[C@H]2O[P@](=O)(S)OC[C@@]34CO[C@@H]([C@H](n5cnc6c(N)ncnc65)O3)[C@@H]4O[P@](=O)(S)OC[C@H]1O[C@H]2n1cnc2c(N)ncnc21 [Compound 11a, dithio-(Rp,Rp)-cyclic-[3′-OTBS-A(2′,5′)p-2′O,4′C-LNA-A(3′,5′)p]] | 5.4 |  |  | 7.0 |  | 11.6
Nc1ncnc2c1ncn2[C@@H]1O[C@@H]2CO[P@@](=O)(S)O[C@H]3[C@H]4OC[C@]3(CO[P@@](=O)(S)O[C@@H]1[C@@H]2O)O[C@H]4n1cnc2c(N)ncnc21 [Compound 10a, dithio-(Rp,Rp)-cyclic-[A(2′,5′)p-2′O,4′C-LNA-A(3′,5′)p]] | 7.5 |  | 24.3 | 10.4 |  | 16.1
O=C(Nc1ncnc2c1ncn2[C@@H]1O[C@@]23CO[C@@H]1[C@@H]2O[P@](=O)(S)OC[C@@]12CO[C@@H]([C@H](n4cnc5c(NC(=O)c6ccccc6)ncnc54)O1)[C@@H]2O[P@](=O)(S)OC3)c1ccccc1 [Compound 4a] | 4.4 |  | 341 | 4.3 |  | 5.6
O=C(Nc1ncnc2c1ncn2[C@@H]1O[C@@H]2CO[P@@](=O)(S)O[C@H]3[C@H]4OC[C@]3(CO[P@](=O)(S)O[C@@H]1[C@@H]2O)O[C@H]4n1cnc2c(NC(=O)c3ccccc3)ncnc21)c1ccccc1 [Compound 11f, dithio-(Sp,Rp)-cyclic-[3′-BzA(2′,5′)p-2′O,4′C-LNA-BzA(3′,5′)p]] | 6.5 |  |  | 6.6 |  | 7.5
O=C(Nc1ncnc2c1ncn2[C@@H]1O[C@@]23CO[C@@H]1[C@@H]2O[P@](=O)(S)OC[C@@H]1C[C@@H](O[P@](=O)(S)OC3)[C@H](n2cnc3c(NC(=O)c4ccccc4)ncnc32)O1)c1ccccc1 [Compound 22a, dithio-(Rp,Rp)-cyclic-[3′H-BzA(2′,5′)p-2′O,4′C-LNA-BzA(3′,5′)p]] | 0.6 |  |  | 0.6 |  | 2.2
O=C(Nc1ncnc2c1ncn2[C@@H]1O[C@@]23CO[C@@H]1[C@@H]2O[P@@](=O)(S)OC[C@@H]1C[C@@H](O[P@](=O)(S)OC3)[C@H](n2cnc3c(NC(=O)c4ccccc4)ncnc32)O1)c1ccccc1 [Compound 22b, dithio-(Rp,Sp)-cyclic-[3′H-BzA(2′,5′)p-2′O,4′C-LNA-BzA(3′,5′)p]] | 4.6 |  |  | 4.6 |  | 5.9
CC(C)(C)[Si](C)(C)O[C@H]1[C@H]2O[P@](=O)(S)OC[C@@]34CO[C@@H]([C@H](n5cnc6c(N)ncnc65)O3)[C@@H]4O[P@@](=O)(S)OC[C@H]1O[C@H]2n1cnc2c(N)ncnc21 [Compound 11b, dithio-(Rp,Sp)-cyclic-[3′-OTBS-A(2′,5′)p-2′O,4′C-LNA-A(3′,5′)p]] | −1.5 |  |  | −1.8 |  | 3.3
Nc1ncnc2c1ncn2[C@@H]1O[C@@H]2CO[P@](=O)(S)O[C@H]3[C@H]4OC[C@]3(CO[P@@](=O)(S)O[C@@H]1[C@H]2F)O[C@H]4n1cnc2c(N)ncnc21 [Compound 37b, dithio-(RP,SP)-cyclic-[3′βF-A(2′,5′)p-2′O,4′C-LNA-A(3′,5′)p]] | 0.5 |  | > 150 | 1.8 |  | 6.8
Nc1nc2c(ncn2[C@@H]2O[C@@]34CO[C@@H]2[C@@H]3O[P@@](=O)(S)OC[C@H]2O[C@@H](n3cnc5c(N)ncnc53)[C@H](O)[C@@H]2O[P@](=O)(S)OC4)c(=O)[nH]1 [Compound 33b, 2-amino-9-((2R,3R,3 aS,5S,7aR,9R,10R,10aS,12R,14aR)-9-(6-amino-9H-purin-9-yl)-10-hydroxy-5,12-dimercapto-5,12-dioxidohexahydro-2H,7H,14H-3,14a-(epoxymethano)difuro[3,2-d:3′,2′-j][1,3,7,9]tetraoxa[2,8]diphosphacyclododecin-2-yl)-1,9-dihydro-6H-purin-6-one] | 9.3 | greater Tm shift than both 2′3′-RR-(A)(A) and 2′3′-(G)(A) | 38 | 13.2 | comparable to or greater than that of the reference compound 2′3′-RR-(A)(A) | 19.3
Nc1ncnc2c1ncn2[C@@H]1O[C@@]23CO[C@@H]1[C@@H]2O[P@@](=O)(S)OC[C@@H]1C[C@@H](O[P@](=O)(S)OC3)[C@H](n2cnc3c(N)ncnc32)O1 [Compound 21b, dithio-(Rp,Sp)-cyclic-[3′H-A(2′,5′)p-2′O,4′C-LNA-A(3′,5′)p]] | 4.2 |  | 77.3 | 5.0 |  | 10.0
Nc1ncnc2c1ncn2[C@@H]1O[C@@]23CO[C@@H]1[C@@H]2O[P@](=O)(S)OC[C@@H]1C[C@@H](O[P@](=O)(S)OC3)[C@H](n2cnc3c(N)ncnc32)O1 [Compound 21a, dithio-(Rp,Rp)-cyclic-[3′H-A(2′,5′)p-2′O,4′C-LNA-A(3′,5′)p]] | 6.2 |  | 26.9 | 9.5 |  | 16.2
O=C(Nc1ncnc2c1ncn2[C@@H]1O[C@@H]2CO[P@@](=O)(S)O[C@H]3[C@H]4OC[C@]3(CO[P@@](=O)(S)O[C@@H]1[C@@H]2O)O[C@H]4n1cnc2c(NC(=O)c3ccccc3)ncnc21)c1ccccc1 [Compound 11d, dithio-(Rp,Rp)-cyclic-[3′-BzA(2′,5′)p-2′O,4′C-LNA-BzA(3′,5′)p]] | 2.4 |  |  | 2.5 |  | 3.7
